In patent publication US20050137185A1, “Combinations of drugs for the treatment of neoplasms” (priority 2003, published 2005):
Where two headings read alike, the source gives them in different places.

Tested on: HCT116 cells
Experiment: Anti-proliferation assay (Alamar Blue metabolism)
Format: cell-based
Conditions: Homo sapiens, read-out: Percent inhibition of Alamar Blue Metabolism in HCT116 cells; for inhibition at 5 µM: HCT-116, chlorpromazine 5 μM; for inhibition at 10 µM: HCT-116, chlorpromazine 10 μM; for inhibition at 40 µM: HCT-116, chlorpromazine 40 μM
Procedure: Stock solutions (1000×) of each compound were prepared in DMSO and stored at −20° C. Master stock plates of 2-fold or 4-fold serial dilutions of individual compounds were prepared in 384-well plates. Combination matrices of test compounds were generated from these master stock plates by dilution into growth media described above. […] The combination matrices were used immediately and discarded.
The anti-proliferation assays were performed in 384-well plates. […] Cells were diluted in culture media such that 1500 cells were delivered in 40 μL of media into each assay well. […] 10× stock solutions (4.5 μL) from the combination matrices were added to 40 μL of culture media in assay wells. Assay plates were incubated for 72-80 hours at 37±0.5° C. with 5% CO2. […] Alamar Blue metabolism was quantified by the amount of fluorescence intensity 3.5-5.0 hours after addition. Quantification, using an LJL Analyst AD reader (LJL Biosystems), was taken in the middle of the well with high attenuation, a 100 msec read time, an excitation filter at 530 nm, and an emission filter at 575 nm. For some experiments, quantification was performed using a Wallac Victor^2 reader. Measurements were taken at the top of the well with stabilized energy lamp control; a 100 msec read time, an excitation filter at 530 nm, and an emission filter at 590 nm.

COc1cc2ncnc(Nc3cccc(Cl)c3)c2cc1OC [Tyrphostin 1486, Tyrphostin AG1478]
inhibition at 13 µM (HCT-116, chlorpromazine 0 μM, tyrphostin 1486 13 μM): 78.7%
inhibition at 26 µM (HCT-116, chlorpromazine 0 μM, tyrphostin 1486 26 μM): 81.4%
inhibition at 51 µM (HCT-116, chlorpromazine 0 μM, tyrphostin 1486 51 μM): 81.3%

CN(C)/N=N/c1[nH]cnc1C(N)=O [Dacarbazine, dacarbazine]
inhibition at 14 µM (HCT-116, chlorpromazine 0 μM, dacarbazine 14 μM): 42.6%
inhibition at 27 µM (HCT-116, chlorpromazine 0 μM, dacarbazine 27 μM): 64.6%
inhibition at 55 µM (HCT-116, chlorpromazine 0 μM, dacarbazine 55 μM): 74.2%

Nc1nc2c(c(=O)[nH]1)N(C=O)C(CNc1ccc(C(=O)N[C@@H](CCC(=O)O)C(=O)O)cc1)CN2 (some centres unmarked) [Leucovorin, leucovorin]
inhibition at 20 µM (HCT-116, chlorpromazine 0 μM, leucovorin 20 μM): -11.5%

CN(C)CCCN1c2ccccc2Sc2ccc(Cl)cc21 [Chlorpromazine, chlorpromazine]
inhibition at 7 µM (HCT-116, 72 h, chlorpromazine 7 μM, tyrphostin 1486 0 μM): -18.6%
inhibition at 14 µM (HCT-116, 72 h, chlorpromazine 14 μM, tyrphostin 1486 0 μM): -12.5%
inhibition at 28 µM (HCT-116, 72 h, chlorpromazine 28 μM, tyrphostin 1486 0 μM): 62.2%
inhibition at 56 µM (HCT-116, 72 h, chlorpromazine 56 μM, tyrphostin 1486 0 μM): 85.6%
inhibition at […] (HCT-116, 72 h, chlorpromazine […], tyrphostin 1486 0 μM): 95.9%
inhibition at 5 µM (dacarbazine 0 μM): 17%
inhibition at 5 µM (docetaxel 0 μM): 2.8%
inhibition at 5 µM (floxuridine 0 μM): 3.53%
inhibition at 5 µM (hydroxycamptothecin 0 μM): 24%
inhibition at 5 µM (leucovorin 0 μM): -4.39%
inhibition at 5 µM (paclitaxel 0 μM): -11.8%
inhibition at 5 µM (vinblastine 0 μM): -20%
inhibition at 5 µM (vinorelbine 0 μM): -20%
inhibition at 10 µM (dacarbazine 0 μM): 54.6%
inhibition at 10 µM (docetaxel 0 μM): 84.8%
inhibition at 10 µM (floxuridine 0 μM): 65.4%
inhibition at 10 µM (hydroxycamptothecin 0 μM): 84%
inhibition at 10 µM (leucovorin 0 μM): 3.27%
inhibition at 10 µM (paclitaxel 0 μM): 56.2%
inhibition at 10 µM (vinblastine 0 μM): 50.8%
inhibition at 10 µM (vinorelbine 0 μM): 60%
inhibition at 20 µM (HCT-116, chlorpromazine 20 μM, docetaxel 0 μM): 91.9%
inhibition at 20 µM (HCT-116, chlorpromazine 20 μM, floxuridine 0 μM): 88.5%
inhibition at 20 µM (HCT-116, chlorpromazine 20 μM, hydroxycamptothecin 0 μM): 88.2%
inhibition at 20 µM (HCT-116, chlorpromazine 20 μM, leucovorin 0 μM): 80.9%
inhibition at 20 µM (HCT-116, chlorpromazine 20 μM, paclitaxel 0 μM): 87%
inhibition at 20 µM (HCT-116, chlorpromazine 20 μM, vinblastine 0 μM): 85.8%
inhibition at 20 µM (HCT-116, chlorpromazine 20 μM, vinorelbine 0 μM): 88.4%
inhibition at 40 µM (dacarbazine 0 μM): 95.8%
inhibition at 40 µM (docetaxel 0 μM): 95.7%
inhibition at 40 µM (floxuridine 0 μM): 95.7%
inhibition at 40 µM (hydroxycamptothecin 0 μM): 95.8%
inhibition at 40 µM (leucovorin 0 μM): 95.6%
inhibition at 40 µM (paclitaxel 0 μM): 95.7%
inhibition at 40 µM (vinblastine 0 μM): 94.5%
inhibition at 40 µM (vinorelbine 0 μM): 94.7%
inhibition at […] (HCT-116, chlorpromazine […], dacarbazine 0 μM): 4.03%
inhibition at […] (HCT-116, chlorpromazine […], docetaxel 0 μM): -12.2%
inhibition at […] (HCT-116, chlorpromazine […], floxuridine 0 μM): -0.0804%
inhibition at […] (HCT-116, chlorpromazine […], hydroxycamptothecin 0 μM): -8.14%
inhibition at […] (HCT-116, chlorpromazine […], leucovorin 0 μM): -0.0253%
inhibition at […] (HCT-116, chlorpromazine […], paclitaxel 0 μM): 10.1%
inhibition at […] (HCT-116, chlorpromazine […], vinblastine 0 μM): -20%
inhibition at […] (HCT-116, chlorpromazine […], vinorelbine 0 μM): -0.591%

CCC1=C[C@@H]2CN(C1)Cc1c([nH]c3ccccc13)[C@@](C(=O)OC)(c1cc3c(cc1OC)N(C)[C@H]1[C@@](O)(C(=O)OC)[C@H](OC(C)=O)[C@]4(CC)C=CCN5CC[C@]31[C@@H]54)C2 [Vinorelbine, vinorelbine]
inhibition at 0.004 µM (HCT-116, chlorpromazine 0 μM, vinorelbine 0.004 μM): -8.91%
inhibition at 0.008 µM (HCT-116, chlorpromazine 0 μM, vinorelbine 0.008 μM): 42.1%
